Assay results: patent publication US7932270B2 (Cytokinetics, Inc., priority 2006, dated 2011)

Target: T1, chicken gizzard smooth muscle myosin subfragment-1 chemically crosslinked to cardiac or skeletal actin (Gallus gallus, UniProt P10587)
T1 construct: chicken gizzard smooth muscle myosin subfragment-1; from tissue; host or cells: chicken gizzard
Experiment: Smooth muscle myosin ATPase dose response assay (pyruvate kinase/horseradish peroxidase/pyruvate oxidase-coupled, amplex red fluorescence)
Assay type: biochemical
Conditions: read-out: IC50 Arithmetic Mean
Procedure, shortened: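 Chicken gizzard myosin S1 crosslinked to cardiac or skeletal actin, titrated to a set hydrolysis rate; 0.15 mM ATP, 12 mM PIPES pH 7.00, 100 mM KCl, 2 mM MgCl2. Pyruvate kinase/pyruvate oxidase/HRP coupling with amplex red fluorescence; IC50 from 4-parameter fit.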

T1 sequence (P02607 2-151): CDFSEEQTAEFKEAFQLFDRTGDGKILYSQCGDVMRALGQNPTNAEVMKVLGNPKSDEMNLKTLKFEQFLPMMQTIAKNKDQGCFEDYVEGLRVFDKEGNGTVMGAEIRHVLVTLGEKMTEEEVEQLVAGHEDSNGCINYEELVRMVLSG
T1 sequence (P10587 84-789): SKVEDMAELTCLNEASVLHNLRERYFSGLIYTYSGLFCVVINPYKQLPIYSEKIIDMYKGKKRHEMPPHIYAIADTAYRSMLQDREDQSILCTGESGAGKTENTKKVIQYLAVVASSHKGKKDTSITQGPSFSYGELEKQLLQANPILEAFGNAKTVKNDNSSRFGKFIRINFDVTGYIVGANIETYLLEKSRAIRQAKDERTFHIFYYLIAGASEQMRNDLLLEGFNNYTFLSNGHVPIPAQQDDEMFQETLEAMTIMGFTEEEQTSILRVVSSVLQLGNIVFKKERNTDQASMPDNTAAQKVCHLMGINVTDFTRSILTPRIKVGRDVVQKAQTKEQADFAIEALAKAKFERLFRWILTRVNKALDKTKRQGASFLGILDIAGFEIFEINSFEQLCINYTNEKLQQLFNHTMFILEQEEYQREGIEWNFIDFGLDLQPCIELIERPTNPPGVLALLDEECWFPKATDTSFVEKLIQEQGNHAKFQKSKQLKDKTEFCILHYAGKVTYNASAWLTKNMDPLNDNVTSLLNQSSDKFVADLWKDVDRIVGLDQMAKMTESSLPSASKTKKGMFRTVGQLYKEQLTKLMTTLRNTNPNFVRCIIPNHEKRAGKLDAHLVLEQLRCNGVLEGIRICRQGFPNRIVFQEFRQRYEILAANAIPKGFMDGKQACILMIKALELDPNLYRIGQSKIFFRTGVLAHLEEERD

| SMILES | IC50 [nM] |
| --- | --- |
| COC(=O)[C@H](CO)NC(=O)c1ccc(-c2ccccc2C#N)nc1NCCc1cccc(F)c1 [methyl (2S)-2-[(6-(2-cyanophenyl)-2-{[2-(3-fluorophenyl)ethyl]amino}(3-pyridyl))carbonylamino]-3-hydroxypropanoate] | 4180 |
| Cn1cc(-c2nc(NCCc3cccc(F)c3)c(C(=O)NC[C@H]3CCC(=O)N3CCCN)cc2F)cn1 [N-{[(2R)-1-(3-aminopropyl)-5-oxopyrrolidin-2-yl]methyl}(5-fluoro-2-{[2-(3-fluorophenyl)ethyl]amino}-6-(1-methylpyrazol-4-yl)(3-pyridyl))carboxamide] | 79 |
| N#Cc1ccccc1-c1ccc(C(=O)NCc2ccc(CN)cc2)c(NCCc2cccc(F)c2)n1 [N-{[4-(aminomethyl)phenyl]methyl}(6-(2-cyanophenyl)-2-{[2-(3-fluorophenyl)ethyl]amino}(3-pyridyl))carboxamide] | 277 |
| Cn1cc(-c2ccc(C(=O)NC[C@H]3CCCN3C(=O)CNC(=O)OC(C)(C)C)c(NCCc3cccc(F)c3)n2)cn1 [N-[((2R)-1-{2-[(tert-butoxy)carbonylamino]acetyl}pyrrolidin-2-yl)methyl](2-{[2-(3-fluorophenyl)ethyl]amino}-6-(1-methylpyrazol-4-yl)(3-pyridyl))carboxamide] | 5530 |
| NCCn1nccc1CNC(=O)c1ccc(-c2cc[nH]n2)nc1NCCc1cccc(F)c1 [N-{[1-(2-aminoethyl)pyrazol-5-yl]methyl}(2-{[2-(3-fluorophenyl)ethyl]amino}-6-pyrazol-3-yl(3-pyridyl))carboxamide] | 634 |
| COCCN[C@H](C)CNC(=O)c1cc(F)c(-c2cnn(C)c2)nc1NCCc1cccc(F)c1 [N-{(2R)-2-[(2-methoxyethyl)amino]propyl}(5-fluoro-2-{[2-(3-fluorophenyl)ethyl]amino}-6-(1-methylpyrazol-4-yl)(3-pyridyl))carboxamide] | 2330 |
| N#Cc1ccccc1-c1ccc(C(=O)NCCN2CCC[C@H](N)C2=O)c(NCCc2cccc(F)c2)n1 (stereo in doubt) [N-[2-(3-amino-2-oxopiperidyl)ethyl](6-(2-cyanophenyl)-2-{[2-(3-fluorophenyl)ethyl]amino}(3-pyridyl))carboxamide] | 2950 |
| CC(C)(CNC(=O)c1ccc(-c2ccccc2C#N)nc1NCCc1cccc(F)c1)NC(=O)CCCN | 277 |
| N#Cc1ccccc1-c1ccc(C(=O)NC[C@H]2CN(C(=O)CN)CCN2)c(NCCc2cccc(F)c2)n1 [N-{[(2S)-4-(2-aminoacetyl)piperazin-2-yl]methyl}(6-(2-cyanophenyl)-2-{[2-(3-fluorophenyl)ethyl]amino}(3-pyridyl))carboxamide] | 8880 |
| Cn1cc(-c2nc(NCCc3cccc(F)c3)c(C(=O)NCc3cccnc3CN)cc2C#N)cn1 [N-{[2-(aminomethyl)(3-pyridyl)]methyl}(5-cyano-2-{[2-(3-fluorophenyl)ethyl]amino}-6-(1-methylpyrazol-4-yl)(3-pyridyl))carboxamide] | 50 |
| N#Cc1ccccc1-c1ccc(CC(=O)NCc2cccnc2)c(NCCc2cccc(F)c2)n1 [2-(6-(2-cyanophenyl)-2-{[2-(3-fluorophenyl)ethyl]amino}(3-pyridyl))-N-(3-pyridylmethyl)acetamide] | 13200 |
| NCc1ncccc1CNC(=O)c1ccc(-c2ccccc2)nc1NCCc1cccc(F)c1 [N-{[2-(aminomethyl)(3-pyridyl)]methyl}(2-{[2-(3-fluorophenyl)ethyl]amino}-6-phenyl(3-pyridyl))carboxamide] | 8 |
| CC(C)(C)OC(=O)NCCCC(=O)N1CCC[C@@H]1CNC(=O)c1ccc(-c2ccccc2C#N)nc1NCCc1cccc(F)c1 [N-[((2R)-1-{4-[(tert-butoxy)carbonylamino]butanoyl}pyrrolidin-2-yl)methyl](6-(2-cyanophenyl)-2-{[2-(3-fluorophenyl)ethyl]amino}(3-pyridyl))carboxamide] | 432 |
| COC(=O)CNC[C@H](N)CNC(=O)c1ccc(-c2ccccc2C#N)nc1NCCc1cccc(F)c1 [methyl 2-({(2S)-2-amino-3-[(6-(2-cyanophenyl)-2-{[2-(3-fluorophenyl)ethyl]amino}(3-pyridyl))carbonylamino]propyl}amino)acetate] | 913 |
| N#Cc1ccccc1-c1ccc(C(=O)N[C@H](CCCCN)C(N)=O)c(NCCc2cccc(F)c2)n1 [N-((1R)-5-amino-1-carbamoylpentyl)(6-(2-cyanophenyl)-2-{[2-(3-fluorophenyl)ethyl]amino}(3-pyridyl))carboxamide] | 1280 |
| N#Cc1ccccc1-c1ccc(C(=O)NC[C@H]2CN(C(=O)CCN)CCN2)c(NCCc2cccc(F)c2)n1 [N-{[(2S)-4-(3-aminopropanoyl)piperazin-2-yl]methyl}(6-(2-cyanophenyl)-2-{[2-(3-fluorophenyl)ethyl]amino}(3-pyridyl))carboxamide] | 11200 |
| N#Cc1ccccc1CCNc1nc(-c2ccccc2C#N)ccc1C(=O)NCc1cccnc1 [(6-(2-cyanophenyl)-2-{[2-(2-cyanophenyl)ethyl]amino}(3-pyridyl))-N-(3-pyridylmethyl)carboxamide] | 44 |
| CC[C@H](CNC(=O)c1cc(F)c(-c2cnn(C)c2)nc1NCCc1cccc(F)c1)NC(=O)CN [N-((1R)-1-{[(5-fluoro-2-{[2-(3-fluorophenyl)ethyl]amino}-6-(1-methylpyrazol-4-yl)(3-pyridyl))carbonylamino]methyl}propyl)-2-aminoacetamide] | 131 |
| Cn1cc(-c2nc(NCCc3cccc(F)c3)c(C(=O)NCc3cccnc3)cc2F)cn1 [(5-fluoro-2-{[2-(3-fluorophenyl)ethyl]amino}-6-(1-methylpyrazol-4-yl)(3-pyridyl))-N-(3-pyridylmethyl)carboxamide] | 12 |
| O=C(NCC1CCNC1=O)c1ccc(-c2cn[nH]c2)nc1NCCc1cccc(F)c1 (centres unmarked) [(2-{[2-(3-fluorophenyl)ethyl]amino}-6-pyrazol-4-yl(3-pyridyl))-N-[(2-oxopyrrolidin-3-yl)methyl]carboxamide] | 180 |
| COCc1cccc(-c2ccc(C(=O)NCc3cccnc3)c(NCCc3cccc(F)c3)n2)c1 [(2-{[2-(3-fluorophenyl)ethyl]amino}-6-[3-(methoxymethyl)phenyl](3-pyridyl))-N-(3-pyridylmethyl)carboxamide] | 5720 |
| COC(=O)NCCNC(=O)c1ccc(-c2ccccc2C#N)nc1NCCc1cccc(F)c1 [(6-(2-cyanophenyl)-2-{[2-(3-fluorophenyl)ethyl]amino}(3-pyridyl))-N-[2-(methoxycarbonylamino)ethyl]carboxamide] | 1120 |

Further compounds by falling IC50, results first:

| IC50 [nM] | SMILES |
| --- | --- |
| 53600 | O=C(NC[C@@H]1CCNC1)c1ccc(-c2ccccc2)nc1NCCc1ccccn1 [N-[((3R)pyrrolidin-3-yl)methyl]{6-phenyl-2-[(2-(2-pyridyl)ethyl)amino](3-pyridyl)}carboxamide] |
| 11000 | Cc1ccccc1-c1ccc(C(=O)NCc2cccnc2)c(NCCc2ccccn2)n1 [{6-(2-methylphenyl)-2-[(2-(2-pyridyl)ethyl)amino](3-pyridyl)}-N-(3-pyridylmethyl)carboxamide] |
| 7410 | N#Cc1ccccc1-c1ccc(C(=O)N[C@H](CCCN)C(N)=O)c(NCCc2cccc(F)c2)n1 [N-((1R)-4-amino-1-carbamoylbutyl)(6-(2-cyanophenyl)-2-{[2-(3-fluorophenyl)ethyl]amino}(3-pyridyl))carboxamide] |
| 5690 | O=C(NCc1cccnc1)c1ccc(-c2ccccc2)nc1NCCCc1ccccc1 [{6-phenyl-2-[(3-phenylpropyl)amino](3-pyridyl)}-N-(3-pyridylmethyl)carboxamide] |
| 4640 | Cn1cc(-c2ccc(C(=O)NC[C@H]3CCCN3C(=O)OC(C)(C)C)c(NCCc3cccc(F)c3)n2)cn1 [tert-butyl (2R)-2-{[(2-{[2-(3-fluorophenyl)ethyl]amino}-6-(1-methylpyrazol-4-yl)(3-pyridyl))carbonylamino]methyl}pyrrolidinecarboxylate] |
| 252 | NCc1cccc(CCNC(=O)c2ccc(-c3ccccc3)nc2NCCc2cccc(F)c2)n1 [N-{2-[6-(aminomethyl)(2-pyridyl)]ethyl}(2-{[2-(3-fluorophenyl)ethyl]amino}-6-phenyl(3-pyridyl))carboxamide] |
| 119 | CC(=O)N1CCC[C@@H]1CNC(=O)c1ccc(-c2ccccc2C#N)nc1NCCc1cccc(F)c1 [N-[((2R)-1-acetylpyrrolidin-2-yl)methyl](6-(2-cyanophenyl)-2-{[2-(3-fluorophenyl)ethyl]amino}(3-pyridyl))carboxamide] |
| 76 | C[C@H](CNC(=O)c1cc(F)c(-c2cnn(C)c2)nc1NCCc1cccc(F)c1)NC(=O)CN |
| 72 | Cn1cc(-c2nc(NCCc3cccc(F)c3)c(C(=O)NC[C@H]3CCCN3C(=O)[C@@H](N)CO)cc2F)cn1 [N-{[(2R)-1-((2S)-2-amino-3-hydroxypropanoyl)pyrrolidin-2-yl]methyl}(5-fluoro-2-{[2-(3-fluorophenyl)ethyl]amino}-6-(1-methylpyrazol-4-yl)(3-pyridyl))carboxamide] |
| 59 | C[C@@H](CO)CNC(=O)c1cc(F)c(-c2cn[nH]c2)nc1NCCc1cccc(F)c1 [N-((2R)-3-hydroxy-2-methylpropyl)(5-fluoro-2-{[2-(3-fluorophenyl)ethyl]amino}-6-pyrazol-4-yl(3-pyridyl))carboxamide] |
| 41 | N#Cc1ccccc1-c1ccc(C(=O)NCc2cccnc2)c(NCCc2cc(F)cc(F)c2)n1 [(2-{[2-(3,5-difluorophenyl)ethyl]amino}-6-(2-cyanophenyl)(3-pyridyl))-N-(3-pyridylmethyl)carboxamide] |
| 21 | N#Cc1ccccc1-c1ccc(C(=O)NCc2ccc(N)cn2)c(NCCc2cccc(F)c2)n1 [N-[(5-amino(2-pyridyl))methyl](6-(2-cyanophenyl)-2-{[2-(3-fluorophenyl)ethyl]amino}(3-pyridyl))carboxamide] |
| 21 | N#Cc1ccccc1-c1ccc(C(=O)NCc2ccno2)c(NCCc2cccc(F)c2)n1 [(6-(2-cyanophenyl)-2-{[2-(3-fluorophenyl)ethyl]amino}(3-pyridyl))-N-(isoxazol-5-ylmethyl)carboxamide] |
